Measurements taken from US8455475B2 (Gruenenthal GmbH, priority 2009, dated 2013).

Biological target: T1, rat B1R (bradykinin receptor 1) (Rattus norvegicus, UniProt P97583)
T1 construct: expressed in transfected cells; host or cells: CHO K1 cells
T1 sequence (P97583 1-337): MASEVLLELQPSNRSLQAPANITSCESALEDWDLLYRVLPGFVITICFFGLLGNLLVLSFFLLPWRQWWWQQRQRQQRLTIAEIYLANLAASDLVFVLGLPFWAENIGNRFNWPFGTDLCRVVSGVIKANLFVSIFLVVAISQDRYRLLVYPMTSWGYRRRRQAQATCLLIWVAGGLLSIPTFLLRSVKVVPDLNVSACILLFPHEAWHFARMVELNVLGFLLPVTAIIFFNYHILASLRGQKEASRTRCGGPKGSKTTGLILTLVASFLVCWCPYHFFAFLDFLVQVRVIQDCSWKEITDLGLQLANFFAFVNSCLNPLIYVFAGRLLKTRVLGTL
Test: FLIPR Ca2+ assay (Fluo-4) on CHO K1 cells stably transfected with the B1R gene of the rat (rB1R cells): % inhibition at 10 μM / IC50, agonist Des-Arg9-bradykinin
Format: cell-based
Details: CHO-K1, rat B1R
Summary of the method: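 Stably transfected CHO K1 cells loaded with Fluo-4 and read on FLIPR (λex 488, λem 540 nm; peak fluorescence). Test substance (10 μM) added first, then after 10–20 min the agonist at EC80; % inhibition versus maximum achievable inhibition. IC50 from several concentrations, n=2–3, N≥2.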

inhibition at 10 µM | SMILES
57% | Cn1ccc2cc(S(=O)(=O)N3CCC4(CCN(C(=O)c5ccc6c(c5)C(N(C(=O)c5ccccc5Cl)C5CC5)CC6)C4)CC3)ccc21 (centres unmarked) [IND_CC-619, 2-Chloro-N-cyclopropyl-N-[6-[8-[(1-methyl-1H-indol-5-yl)sulfonyl]-2,8-diazaspiro[4.5]decane-2-carbonyl]-2,3-dihydro-1H-inden-1-yl]-benzamide]
54% | O=C(NC1CCc2ccc(C(=O)N3CCC4(CCN(Cc5ccc[nH]5)CC4)C3)cc21)c1cc(Cl)ccc1F (centres unmarked) [IND_CC-620, 5-Chloro-2-fluoro-N-[6-[8-(1H-pyrrol-2-yl-methyl)-2,8-diazaspiro[4.5]decane-2-carbonyl]-2,3-dihydro-1H-inden-1-yl]-benzamide]
67% | O=C(NC1CCc2ccc(C(=O)N3CCC4(CCN(Cc5ccc(F)c(F)c5)CC4)C3)cc21)c1cc(Cl)ccc1F (centres unmarked) [IND_CC-621, 5-Chloro-N-[6-[8-[(3,4-difluoro-phenyl)-methyl]-2,8-diazaspiro[4.5]decane-2-carbonyl]-2,3-dihydro-1H-inden-1-yl]-2-fluoro-benzamide]
69% | O=C(NC1CCc2ccc(C(=O)N3CCC4(CCN(Cc5ccc(F)cc5F)CC4)C3)cc21)c1cc(Cl)ccc1F (centres unmarked) [IND_CC-622, 5-Chloro-N-[6-[8-[(2,4-difluoro-phenyl)-methyl]-2,8-diazaspiro[4.5]decane-2-carbonyl]-2,3-dihydro-1H-inden-1-yl]-2-fluoro-benzamide]
59% | COc1ccc(CN2CCC3(CC2)CCN(C(=O)c2ccc4c(c2)C(NC(=O)c2cc(Cl)ccc2F)CC4)C3)cc1F (centres unmarked) [IND_CC-623, 5-Chloro-2-fluoro-N-[6-[8-[(3-fluoro-4-methoxy-phenyl)-methyl]-2,8-diazaspiro[4.5]decane-2-carbonyl]-2,3-dihydro-1H-inden-1-yl]-benzamide]
62% | O=C(NC1CCc2ccc(C(=O)N3CCC4(CCN(Cc5ccc[nH]5)CC4)CC3)cc21)c1cc(Cl)ccc1F (centres unmarked) [IND_CC-624, 5-Chloro-2-fluoro-N-[6-[9-(1H-pyrrol-2-yl-methyl)-3,9-diazaspiro[5.5]undecane-3-carbonyl]-2,3-dihydro-1H-inden-1-yl]-benzamide]
50% | O=C(NC1CCc2ccc(C(=O)N3CCC4(CCN(Cc5c[nH]cn5)CC4)CC3)cc21)c1cc(Cl)ccc1F (centres unmarked) [IND_CC-625, 5-Chloro-2-fluoro-N-[6-[9-(1H-imidazol-4-yl-methyl)-3,9-diazaspiro[5.5]undecane-3-carbonyl]-2,3-dihydro-1H-inden-1-yl]-benzamide]
55% | O=C(NC1CCc2ccc(C(=O)N3CCC4(CCN(Cc5ccccn5)CC4)CC3)cc21)c1cc(Cl)ccc1F (centres unmarked) [IND_CC-626, 5-Chloro-2-fluoro-N-[6-[9-(pyridin-2-yl-methyl)-3,9-diazaspiro[5.5]undecane-3-carbonyl]-2,3-dihydro-1H-inden-1-yl]-benzamide]
54% | O=C(NC1CCc2ccc(C(=O)N3CCC4(CCN(Cc5ccncc5)CC4)CC3)cc21)c1cc(Cl)ccc1F (centres unmarked) [IND_CC-627, 5-Chloro-2-fluoro-N-[6-[9-(pyridin-4-yl-methyl)-3,9-diazaspiro[5.5]undecane-3-carbonyl]-2,3-dihydro-1H-inden-1-yl]-benzamide]
63% | O=C(NC1CCc2ccc(C(=O)N3CCC4(CCN(Cc5ccc(F)c(F)c5)CC4)CC3)cc21)c1cc(Cl)ccc1F (centres unmarked) [IND_CC-628, 5-Chloro-N-[6-[9-[(3,4-difluoro-phenyl)-methyl]-3,9-diazaspiro[5.5]undecane-3-carbonyl]-2,3-dihydro-1H-inden-1-yl]-2-fluoro-benzamide]
71% | O=C(NC1CCc2ccc(C(=O)N3CCC4(CCN(Cc5ccc(F)cc5F)CC4)CC3)cc21)c1cc(Cl)ccc1F (centres unmarked) [IND_CC-629, 5-Chloro-N-[6-[9-[(2,4-difluoro-phenyl)-methyl]-3,9-diazaspiro[5.5]undecane-3-carbonyl]-2,3-dihydro-1H-inden-1-yl]-2-fluoro-benzamide]
53% | COc1ccc(CN2CCC3(CC2)CCN(C(=O)c2ccc4c(c2)C(NC(=O)c2cc(Cl)ccc2F)CC4)CC3)cc1F (centres unmarked) [IND_CC-630, 5-Chloro-2-fluoro-N-[6-[9-[(3-fluoro-4-methoxy-phenyl)-methyl]-3,9-diazaspiro[5.5]undecane-3-carbonyl]-2,3-dihydro-1H-inden-1-yl]-benzamide]
57% | O=C(NC1CCc2ccc(C(=O)N3CCC4(CCN(Cc5c[nH]cn5)CC4)C3)cc21)c1cc(C(F)(F)F)ccc1Cl (centres unmarked) [IND_CC-631, 2-Chloro-N-[6-[8-(1H-imidazol-4-yl-methyl)-2,8-diazaspiro[4.5]decane-2-carbonyl]-2,3-dihydro-1H-inden-1-yl]-5-(trifluoromethyl)-benzamide]
64% | O=C(NC1CCc2ccc(C(=O)N3CCC4(CCN(Cc5c(F)cccc5F)CC4)C3)cc21)c1cc(C(F)(F)F)ccc1Cl (centres unmarked) [IND_CC-632, 2-Chloro-N-[6-[8-[(2,6-difluoro-phenyl)-methyl]-2,8-diazaspiro[4.5]decane-2-carbonyl]-2,3-dihydro-1H-inden-1-yl]-5-(trifluoromethyl)-benzamide]

Further lines, the compound ahead of its results:

SMILES | inhibition at 10 µM
Cn1nc(C(C)(C)C)cc1C(=O)N1CCC2(CCN(C(=O)c3ccc4c(c3)C(N(C(=O)c3ccccc3Cl)C3CC3)CC4)C2)CC1 (centres unmarked) [IND_CC-607, N-[6-[8-(5-tert-Butyl-2-methyl-2H-pyrazole-3-carbonyl)-2,8-diazaspiro[4.5]decane-2-carbonyl]-2,3-dihydro-1H-inden-1-yl]-2-chloro-N-cyclopropyl-benzamide] | 67%
O=C(NC1CCc2ccc(C(=O)N3CCC4(CC3)CCN(S(=O)(=O)c3ccc(Cl)s3)CC4)cc21)c1ccccc1Cl (centres unmarked) [IND_CC-608, 2-Chloro-N-[6-[9-[(5-chloro-thiophen-2-yl)sulfonyl]-3,9-diazaspiro[5.5]undecane-3-carbonyl]-2,3-dihydro-1H-inden-1-yl]-benzamide] | 102%
O=C(NC1CCc2ccc(C(=O)N3CCC4(CC3)CCN(S(=O)(=O)c3ccc(F)cc3F)CC4)cc21)c1ccccc1Cl (centres unmarked) [IND_CC-609, 2-Chloro-N-[6-[9-[(2,4-difluoro-phenyl)sulfonyl]-3,9-diazaspiro[5.5]undecane-3-carbonyl]-2,3-dihydro-1H-inden-1-yl]-benzamide] | 101%
N#Cc1cc(S(=O)(=O)N2CCC3(CCN(C(=O)c4ccc5c(c4)C(NC(=O)c4ccccc4Cl)CC5)CC3)CC2)ccc1F (centres unmarked) [IND_CC-610, 2-Chloro-N-[6-[9-[(3-cyano-4-fluoro-phenyl)sulfonyl]-3,9-diazaspiro[5.5]undecane-3-carbonyl]-2,3-dihydro-1H-inden-1-yl]-benzamide] | 103%
N#Cc1ccccc1S(=O)(=O)N1CCC2(CCN(C(=O)c3ccc4c(c3)C(NC(=O)c3ccccc3Cl)CC4)CC2)CC1 (centres unmarked) [IND_CC-611, 2-Chloro-N-[6-[9-[(2-cyano-phenyl)sulfonyl]-3,9-diazaspiro[5.5]undecane-3-carbonyl]-2,3-dihydro-1H-inden-1-yl]-benzamide] | 98%
Cn1ccc2c(S(=O)(=O)N3CCC4(CCN(C(=O)c5ccc6c(c5)C(NC(=O)c5ccccc5Cl)CC6)CC4)CC3)cccc21 (centres unmarked) [IND_CC-612, 2-Chloro-N-[6-[9-[(1-methyl-1H-indol-4-yl)sulfonyl]-3,9-diazaspiro[5.5]undecane-3-carbonyl]-2,3-dihydro-1H-inden-1-yl]-benzamide] | 65%
CC(C)S(=O)(=O)N1CCC2(CCN(C(=O)c3ccc4c(c3)C(NC(=O)c3ccccc3Cl)CC4)CC2)CC1 (centres unmarked) [IND_CC-613, 2-Chloro-N-[6-[9-(isopropylsulfonyl)-3,9-diazaspiro[5.5]undecane-3-carbonyl]-2,3-dihydro-1H-inden-1-yl]-benzamide] | 102%
Cn1ccc2cc(S(=O)(=O)N3CCC4(CCN(C(=O)c5ccc6c(c5)C(NC(=O)c5ccccc5Cl)CC6)CC4)CC3)ccc21 (centres unmarked) [IND_CC-614, 2-Chloro-N-[6-[9-[(1-methyl-1H-indol-5-yl)sulfonyl]-3,9-diazaspiro[5.5]undecane-3-carbonyl]-2,3-dihydro-1H-inden-1-yl]-benzamide] | 67%
O=C(c1ccc2c(c1)C(N(C(=O)c1ccccc1Cl)C1CC1)CC2)N1CCC2(CCN(S(=O)(=O)c3ccc(Cl)s3)CC2)C1 (centres unmarked) [IND_CC-615, 2-Chloro-N-[6-[8-[(5-chloro-thiophen-2-yl)sulfonyl]-2,8-diazaspiro[4.5]-decane-2-carbonyl]-2,3-dihydro-1H-inden-1-yl]-N-cyclopropyl-benzamide] | 67%
O=C(c1ccc2c(c1)C(N(C(=O)c1ccccc1Cl)C1CC1)CC2)N1CCC2(CCN(S(=O)(=O)c3ccc(F)cc3F)CC2)C1 (centres unmarked) [IND_CC-616, 2-Chloro-N-cyclopropyl-N-[6-[8-[(2,4-difluoro-phenyl)sulfonyl]-2,8-diazaspiro[4.5]decane-2-carbonyl]-2,3-dihydro-1H-inden-1-yl]-benzamide] | 81%
N#Cc1cc(S(=O)(=O)N2CCC3(CCN(C(=O)c4ccc5c(c4)C(N(C(=O)c4ccccc4Cl)C4CC4)CC5)C3)CC2)ccc1F (centres unmarked) [IND_CC-617, 2-Chloro-N-[6-[8-[(3-cyano-4-fluoro-phenyl)sulfonyl]-2,8-diazaspiro[4.5]-decane-2-carbonyl]-2,3-dihydro-1H-inden-1-yl]-N-cyclopropyl-benzamide] | 67%
N#Cc1ccccc1S(=O)(=O)N1CCC2(CCN(C(=O)c3ccc4c(c3)C(N(C(=O)c3ccccc3Cl)C3CC3)CC4)C2)CC1 (centres unmarked) [IND_CC-618, 2-Chloro-N-[6-[8-[(2-cyano-phenyl)sulfonyl]-2,8-diazaspiro[4.5]decane-2-carbonyl]-2,3-dihydro-1H-inden-1-yl]-N-cyclopropyl-benzamide] | 61%
